Values of other authors, collected in patent US11904118B2, “Drug delivery medical device” (Micell Medtech Inc., priority 2010, dated 2024).

Biological target: FKBP12 (Homo sapiens, UniProt P62942)
Sequence (P62942 whole entry, species assumed): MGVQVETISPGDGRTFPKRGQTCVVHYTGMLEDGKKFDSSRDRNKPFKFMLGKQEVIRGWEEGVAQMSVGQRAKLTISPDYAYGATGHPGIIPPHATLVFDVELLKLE

SMILES | FKBP12 binding [nM] | FKBP12 binding (nM)
CO[C@H]1C[C@@H]2CC[C@@H](C)[C@@](O)(O2)C(=O)C(=O)N2CCCC[C@H]2C(=O)O[C@H]([C@H](C)C[C@@H]2CC[C@H](n3cnnn3)[C@H](OC)C2)CC(=O)[C@H](C)/C=C(\C)[C@@H](O)[C@@H](OC)C(=O)[C@H](C)C[C@H](C)/C=C/C=C/C=C/1C [Zotarolimus] | 2.0 to 3.2 | 
CC[C@@H]1/C=C(\C)C[C@H](C)C[C@H](OC)[C@H]2O[C@@](O)(C(=O)C(=O)N3CCCC[C@H]3C(=O)O[C@H](/C(C)=C/[C@@H]3CC[C@H](Cl)[C@H](OC)C3)[C@H](C)[C@@H](O)CC1=O)[C@H](C)C[C@@H]2OC [Pimecrolimus] |  | about 1.2 nM
CO[C@H]1C[C@@H]2CC[C@@H](C)[C@@](O)(O2)C(=O)C(=O)N2CCCC[C@H]2C(=O)O[C@H]([C@H](C)C[C@@H]2CC[C@@H](OCCO)[C@H](OC)C2)CC(=O)[C@H](C)/C=C(\C)[C@@H](O)[C@@H](OC)C(=O)[C@H](C)C[C@H](C)/C=C/C=C/C=C/1C [Everolimus, 40-O-(2-Hydroxyethyl)rapamycin] | 1.8 to 2.6 | 
C=CC[C@@H]1/C=C(\C)C[C@H](C)C[C@H](OC)[C@H]2O[C@@](O)(C(=O)C(=O)N3CCCC[C@H]3C(=O)O[C@H](/C(C)=C/[C@@H]3CC[C@@H](O)[C@H](OC)C3)[C@H](C)[C@@H](O)CC1=O)[C@H](C)C[C@@H]2OC [Tacrolimus] | 0.2 to 0.4 | 
CO[C@H]1C[C@@H]2CC[C@@H](C)[C@@](O)(O2)C(=O)C(=O)N2CCCC[C@H]2C(=O)O[C@H]([C@H](C)C[C@@H]2CC[C@@H](OC(=O)C(C)(CO)CO)[C@H](OC)C2)CC(=O)[C@H](C)/C=C(\C)[C@@H](O)[C@@H](OC)C(=O)[C@H](C)C[C@H](C)/C=C/C=C/C=C/1C [Temsirolimus, 42-[3-hydroxy-2-(hydroxymethyl)-2-methylpropanoate]rapamycin] |  | about the same as Sirolimus
